Data set [1] has as its system T. congolense. Nature of the data set: In vitro drug sensitivity assay, T. congolense (IL3000). It counts as cell-based. The conditions noted are these: Trypanosoma congolense; IL3000 strain. On the procedure:
1.2 In vitro drug sensitivity assays - Trypanosoma congolense
EC50 values for test compounds against T. congolense (IL3000 strain) were conducted as previously described3 with minor modifications.4 Briefly, trypanosome cell densities were determined using a CASY cell counter (Schärfe) and diluted to a seeding density of 2 x 105 trypanosomes/mL. BSF trypanosomes were grown in HMI-9 (IMDM) media supplemented with 20% (v/v) bovine serum.1 Test compounds were resuspended to a final concentration of 10 mg/mL in DMSO. Assays plates were incubated at 34 °C with 5 % CO2, for a total of 69 h, prior to addition of 10 µL of Resazurin (12.5 mg in 100 mL phosphate buffered saline, Aldrich) into each well, followed by a further 3 h incubation. Absorbance was read using a SpectraMax (Gemini XS) fluorescence reader at an excitation wavelength of 536 nm and an emission wavelength of 588 nm. EC50 values were determined using SOFTmax Pro 5.2 analysis software. All experiments were conducted with technical duplicates, and at least three biological replicates. […]

Data set [2] can be described thus: Aqueous kinetic solubility by laser nephelometry. It counts as physicochemical. The conditions noted are these: MilliQ water with 2.5% DMSO, read-out: Sol (kinetic solubility); for solubility kinetic: range 250-12 µM. On the procedure: 2. Drug metabolism and pharmacokinetics
The aqueous solubility of test compounds was measured using laser nephelometry. Compounds were subject to serial dilution from 10 mM to 0.5 mM in DMSO. Aliquot were then mixed with MilliQ water to obtain an aqueous dilution plate with a final concentration range of 250 – 12 µM. The final DMSO concentration in these plates was 2.5%. Triplicate aliquots were transferred to a flat-bottomed polystyrene plate which was immediately read on a NEPHELOstar nephelometer (BMG Lab Technologies). The laser scatter caused by insoluble particulates (relative nephelometry units, RNU) was plotted against compound concentration using a segmental regression fit, with the point of inflection being quoted as the compound’s aqueous solubility (µM).
Solubility of compound 1 was measured by a different method. Here, compound 1 was dissolved in DMSO to give a 10 mM solution and solubility test samples prepared by adding a volume (5 µL) of this stock solution to phosphate buffered saline, pH 7.4 (195 µL, Sigma-Aldrich). This

The test system of a further data set is L6 cells. Briefly: Cytotoxicity assay, rat skeletal myoblasts (L6). It counts as cell-based. On the procedure:
1.4 Cytotoxicity assays – Rat skeletal myoblasts (L6)
The cytotoxicity of test compounds was evaluated using a rat skeletal myoblast (L6) cell line, as previously described3, but with minor modifications. Cells were grown in RPMI media supplemented with 10% (v/v) fetal calf serum. L6 cells at a seeding density of 2 x 10^4 cells/mL were incubated in microtiter plates overnight at 37 °C and 5 % CO2 until adherent. The following day, test compounds were added to the plates (3-fold serial dilutions), prior to incubation for 69 h. Following incubation, 10 µL of Resazurin (12.5 mg in 100 mL phosphate buffered saline, Aldrich) was added to each well and the plates were incubated for a further 3 h. The plates were read using a SpectraMax (Gemini XS) fluorescence reader at an excitation wavelength of 536 nm and an emission wavelength of 588 nm. EC50 values were determined using SOFTmax Pro 5.2 analysis software. All experiments were conducted as technical replicates, with at least three biological replicates. […]

Data set [3] is described as follows: Bovine liver microsome stability. It counts as in vitro ADME. The conditions noted are these: intrinsic clearance. On the procedure:
2.2 Microsomal stability studies […]
(b) Bovine liver microsome stability. Test compounds (0.5 µM) were incubated with 0.5 mg/mL bovine liver microsomes (Xenotech LLC TM) in 50 mM potassium phosphate buffer, pH7.4 and the reaction initiated upon addition of excess NADPH (8 mg/mL in 50 mM potassium phosphate buffer, pH7.4).
Aliquots (50 µL) of the incubation mixture were taken at time zero, 3, 6, 9, 15 and 30 min then mixed with acetonitrile (100 µL) to stop the reaction. An internal standard was added to all samples, prior to centrifugation (10 min, 1,665 g, RT) to sediment precipitated protein. Reaction plates were then sealed prior to UPLCMSMS analysis using a Quattro Premier XE (Waters corporation, USA).
XLfit (IDBS, UK) was used to calculate the exponential decay and consequently the rate constant (k) from the ratio of peak area of test compound to internal standard at each timepoint. The rate of intrinsic clearance (CLi) of each test compound was then calculated using the following […]
CLi(mL/min/g liver) = k x V x microsomal protein yield
Where V (mL/mg protein) is the incubation volume/ mg protein added and microsomal protein yield is taken as 52.5 mg protein/ g of liver. Verapamil (0.5 µM) was used as a positive control to confirm acceptable assay performance. […]
In general terms: Liver microsomes are a subcellular fraction often used to study metabolism.

For data set [4], the system named is T. vivax. Nature of the data set: Ex vivo drug sensitivity assay, T. vivax (STIB 719/ILRAD 560). It counts as cell-based. The conditions noted are these: Trypanosoma vivax. On the procedure: Test compounds were resuspended to a final concentration of 10 mg/mL in DMSO. […]
1.3 Ex vivo drug sensitivity assays - Trypanosoma vivax
Since T. vivax cannot be cultured axenically, BSF trypanosomes were harvested from an infected mouse with high parasitemia via cardiac puncture and used directly in ex vivo assays. EC50 values were determined against T, vivax (STIB 719/ ILRAD 560) as previously described3, with minor modifications. Briefly, cell densities were determined using a Neubauer chamber and then diluted to a seeding density of 4 x 105 trypanosomes / mL. BSF trypanosomes were cultured in HMI-9 (IMDM) media containing 20% (v/v) bovine serum. Assay plates were incubated at 37 °C with 5 % CO2, for a total of 45 h prior to addition 10 µL of Resazurin (12.5 mg in 100 mL phosphate buffered saline, Aldrich) into each well, followed by a further 3 h incubation. Absorbance was read using a SpectraMax (Gemini XS) fluorescence reader at an excitation wavelength of 536 nm and an emission wavelength of 588 nm. EC50 values were determined using SOFTmax Pro 5.2 analysis […]
software. […]

The subject of data set [5] is T. vivax. Briefly: NMRI mouse efficacy model, T. vivax. It counts as in vivo, Trypanosoma vivax. The conditions noted are these: mice; 10 mg/kg SC once daily for 4 days. On the procedure:
(§1) 3. In vivo efficacy studies
(§2) The T. congolense (IL3000) and T. vivax (ILRAD V34) cell lines7, 8, both originating from Kenya, were used in the following in vivo mouse studies. For studies in cattle, either Trypanosoma congolense (savannah) KONT 2/133, 224) or T. vivax STIB 719 was used.
(§3) 3.1 Mouse efficacy studies for T. brucei brucei.
(§4) Mouse efficacy studies for T. brucei brucei were carried out as previously detailed.9 3.2 NMRI mouse efficacy studies for T. congolense and T. vivax.
(§5) Mouse models of infections were carried out using standardized protocols. Briefly, 1 mL samples of cryopreserved T. congolense, or T. vivax-infected blood harvested directly from an infected mouse, were diluted with Hanks Balanced Salt Solution plus 20 mM glucose (HBSS+G) to 5 x 10^4 trypomastigotes/mL (5 x 105 for T. vivax). Female mice (NMRI) were inoculated IP on day 0 with 0.2 mL/animal (equivalent to ~ 1 x 104 T. congolense or ~ 1 x 105 T. vivax per animal). The level of parasitaemia was inspected microscopically on day 3 using tail blood smears, counting 20 high powered fields (× 400 magnification). For untreated or treated animals whose tail smears exceeded 50 parasites/field, precise parasite levels were established using a Neubauer haemocytometer; mice with a parasite burden over 1 x 108 were promptly and humanely terminated (T. congolense only, from our experience the mice will not survive for a further 24 h). Alternatively, in the case of T. vivax-infected mice the immune system will bring the infection to a sub-lethal level (below limit of detection) […]
(§6) followed by cycles of high and low parasitaemia. Eventually mice infected with T. vivax succumb to the infection between 30 – 60 days post-infection.
(§7) Suppression of parasitaemia - mouse
(§8) On day 3 post-infection, animals were randomly allocated to groups, with 3 mice/group. Infected animals were dosed with one of the following: diaminazene diaceturate IP. – 40 mg/kg once only as a control (early-stage trypanocide used to clear the parasites in the systemic circulation and in tissues other than CNS), compound 1 (SC) at 3, 10, 30 and 50 mg free base/kg twice and once daily for 4 d or a single dose, or compound 2 (SC) at 3 and 10 mg free base /kg once daily for 4 d, once daily for 2 d or a single dose, one group of 3 mice acted as an untreated control group. The dose solutions were prepared daily, using 5% DMSO: 40% PEG400: 55% MilliQ H2O for test compounds and 10% DMSO: 90% peanut oil for standard drugs. Alternatively, compound 2 was delivered for 48 h via SC implanted ALZET osmotic pumps (6, 12, 25 and 50 mg free base/mL, vehicle: 50% DMSO […]
(§9) and 50% deionized water).
(§10) Response to treatment was determined by monitoring parasitaemia twice a week until day 21.
(§11) After day 21, the mice were checked once a week until 63 d post-treatment. Mice surviving to the end of the experiment, and with blood smears clear of parasites, were considered cured. […]
(§12) The parasites were obtained from a donor calf. This isolate is resistant to diminazene (20 mg/kg) and isometamidium (1 mg/kg) in cattle, and diminazene (7 mg/kg) and isometamidium (>1 mg/kg) in mice. Calves were parasitaemic by study day 6. Calves (n = 5) were treated with compound 1 (5 mg/kg, SC, twice 12 h apart) on study

The subject of data set [6] is T. congolense. Nature of the data set: NMRI mouse efficacy model, T. congolense. The conditions noted are these: mice; 10 mg/kg SC once daily for 4 days. It counts as in vivo, Trypanosoma congolense. On the procedure:
as §1, §2, §3, §4, §5, §6, §7, §8, §9, §10, §11, §12

Results on 6 compounds are retold here after article PMC9014415, “Repositioning of a Diaminothiazole Series Confirmed to Target the Cyclin-Dependent Kinase CRK12 for Use in the Treatment of African Animal Trypanosomiasis” (Journal of Medicinal Chemistry, 2022).

What is called EC50 is the concentration giving half of the maximal effect. A higher EC50 goes with a need for much substance. In general, solubility (kinetic) refers to solubility judged after dilution from a stock solution rather than from solid.

For the compound `CC(C)CS(=O)(=O)N[C@H]1CC[C@H](Nc2nc(N)c(C(=O)c3c(F)cc(CN4CCC4)cc3F)s2)CC1.Cl` [Compound 6, N-(((trans)-4-((4-Amino-5-(4-azetidin-1-ylmethyl)-2,6-difluorobenzoyl)thiazol-2-yl)amino)cyclohexyl)-2-methylpropane-1-sulfonamide Hydrochloride], the half-maximal effective concentration (EC50) in the data set on T. congolense [1] is 2.5 nM; with L6 cells it was 5300 nM; in the data set with T. vivax [4], 6.9 nM. For the same compound, in data set [2], the kinetic solubility is above 250 µM. Further, the “Bovine Microsome Cli (BLM: bovine microsomal clearance)” value (shortened to “Bovine Microsome Cli”) in data set [3] stood at 1.3 mL/min/g.

As to `CC(C)CS(=O)(=O)N[C@H]1CC[C@H](Nc2nc(N)c(C(=O)c3c(F)cc(CCN(C)C)cc3F)s2)CC1.Cl` [Compound 7, N-(((trans)-4-((4-Amino-5-(4-(2-dimethylamino)ethyl)-2,6-difluorobenzoyl)thiazol-2-yl)amino)cyclohexyl)-2-methylpropane-1-sulfonamide Hydrochloride], the EC50 in the data set on T. congolense [1] came to 16 nM; with L6 cells it was 18000 nM; with T. vivax [4], 1 nM. Also, in data set [2], the kinetic solubility was above 250 µM. Further, the “Bovine Microsome Cli” value in data set [3] is on record as 0.8 mL/min/g.

Consider `CC(C)CS(=O)(=O)N[C@H]1CC[C@H](Nc2nc(N)c(C(=O)c3c(F)cc(CN4CCOCC4)cc3F)s2)CC1.Cl` [Compound 4, N-((trans)-4-((4-Amino-5-(2,6-difluoro-4-((4-morpholinomethyl)benzoyl)thiazol-2-yl)amino)cyclohexyl))-2-methylpropane-1-sulfonamide Hydrochloride], for which, in the data set on T. vivax [5], the “Efficacy at 10 mg/kg SC for 4 days, T. vivax” value (“Efficacy … T. vivax” below) was “No cure (0/3)”. Further, in the data set on T. congolense [6], the “Efficacy at 10 mg/kg SC for 4 days, T. congo” value (“Efficacy … T. congo” for short) was “No cure (0/3)”. Moreover, the “Bovine Microsome Cli” value in data set [3] stood at 1 mL/min/g.

As for `CC(C)CS(=O)(=O)N[C@H]1CC[C@H](Nc2nc(N)c(C(=O)c3c(F)cc(CN4CCN(C)CC4)cc3F)s2)CC1.Cl` [Compound 3, N-((trans)-4-((4-Amino-5-(2,6-difluoro-4-((4-methylpiperazin-1-yl)methyl)benzoyl)thiazol-2-yl)amino)cyclohexyl)-2-methylpropane-1-sulfonamide Hydrochloride], the “Efficacy … T. vivax” value in the data set with T. vivax [5] was “No cure (0/3)”. In the data set on T. congolense [6], the “Efficacy … T. congo” value is given as “Partial cure (1/3)”. Besides, the solubility (kinetic) in data set [2] was above 250 µM. Besides, the “Bovine Microsome Cli” value in data set [3] is recorded as below 0.5 mL/min/g.

`CC(C)CS(=O)(=O)N[C@H]1CC[C@H](Nc2nc(N)c(C(=O)c3c(F)cc(CN)cc3F)s2)CC1.Cl` [Compound 9, N-((trans)-4-((4-Amino-5-(4-(aminomethyl)-2,6-difluorobenzoyl)thiazol-2-yl)amino)cyclohexyl)-2-methylpropane-1-sulfonamide Hydrochloride]: the concentration for a half-maximal effect (EC50) with T. congolense [1] is 8.3 nM; with L6 cells it was 5900 nM; with T. vivax [4], 0.5 nM. Besides, in data set [2], the kinetic solubility was above 250 µM. In addition, in data set [3], the “Bovine Microsome Cli” value is given as below 0.5 mL/min/g.

`CC(C)CS(=O)(=O)N[C@H]1CC[C@H](Nc2nc(N)c(C(=O)c3c(F)cc(CN4CCCC4)cc3F)s2)CC1.Cl` [Compound 5, N-((trans)-4-((-4-Amino-5-(2,6-difluoro-4-(pyrrolidin-1-ylmethyl)benzoyl)thiazol-2-yl)amino)cyclohexyl)-2-methyl-propane-1-sulfonamide Hydrochloride]: the “Efficacy … T. vivax” value with T. vivax [5] was “Full cure (3/3)”. For the same compound, the “Efficacy … T. congo” value in the data set on T. congolense [6] is “Partial cure (1/3)”. Besides, the kinetic solubility at 24 h in data set [2] (pH 7.4, range 250-12 µM) is 220 µM. In addition, in data set [3], the “Bovine Microsome Cli” value was below 0.5 mL/min/g.
